Columns and labels:
[1] = target: HIV-1 reverse transcriptase (Human immunodeficiency virus type 1 group M subtype B, UniProt P04585); experiment: Inhibition of HIV-1 reverse transcriptase; format: biochemical, human immunodeficiency virus type 1 (HIV-1)
[2] = target: HBV DNA polymerases (Hepatitis B virus genotype D subtype ayw, UniProt P03156); experiment: Inhibition of HBV DNA polymerases; format: biochemical; conditions: activity compared with the (S)-enantiomer
Sequence of HBV DNA polymerases (P03156 whole entry): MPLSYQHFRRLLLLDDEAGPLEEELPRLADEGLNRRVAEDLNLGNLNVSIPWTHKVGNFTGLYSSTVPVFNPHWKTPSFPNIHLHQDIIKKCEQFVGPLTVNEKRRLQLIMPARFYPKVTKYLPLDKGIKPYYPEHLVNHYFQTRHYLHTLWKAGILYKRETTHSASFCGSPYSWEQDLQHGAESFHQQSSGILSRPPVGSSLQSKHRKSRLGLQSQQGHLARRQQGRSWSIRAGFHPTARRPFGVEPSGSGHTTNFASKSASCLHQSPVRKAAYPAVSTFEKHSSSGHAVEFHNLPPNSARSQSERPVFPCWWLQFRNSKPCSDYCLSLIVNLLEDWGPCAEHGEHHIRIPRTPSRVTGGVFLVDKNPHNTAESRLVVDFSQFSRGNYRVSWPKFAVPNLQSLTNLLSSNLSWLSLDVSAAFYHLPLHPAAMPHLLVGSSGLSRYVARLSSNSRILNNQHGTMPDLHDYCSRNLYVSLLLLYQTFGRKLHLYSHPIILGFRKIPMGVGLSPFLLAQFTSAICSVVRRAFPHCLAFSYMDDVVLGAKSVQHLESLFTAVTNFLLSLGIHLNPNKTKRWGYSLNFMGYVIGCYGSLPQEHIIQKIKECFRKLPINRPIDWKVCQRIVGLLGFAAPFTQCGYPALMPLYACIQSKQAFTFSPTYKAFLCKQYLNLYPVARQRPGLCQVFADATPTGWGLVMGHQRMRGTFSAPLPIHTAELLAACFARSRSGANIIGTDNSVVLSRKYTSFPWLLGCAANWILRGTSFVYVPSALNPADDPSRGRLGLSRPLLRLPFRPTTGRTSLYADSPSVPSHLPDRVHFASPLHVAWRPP

Molecule: Nc1nc2c(ncn2CC[C@H](CO)COP(=O)(O)OP(=O)(O)OP(=O)(O)O)c(=O)[nH]1 (single isomer, unassigned) [(R)-enantiomer of PCV-TP]
- inhibition of HIV-1 reverse transcriptase ([1]; activity compared with the (S)-enantiomer): more active than the (S)-enantiomer
- inhibition of HBV DNA polymerases [2]: more active than the (S)-enantiomer

Molecule: penciclovir triphosphate [triphosphate derivative of penciclovir, reference compound]
- inhibition of RNA-directed DNA polymerase (reverse transcriptase) activity of HIV-1 [1]: inhibits

From US20060069108A1, “Use of (R)-penciclovir triphosphate for the manufacture of a medicament for the treatment of viral diseases” (priority 1995, published 2006)
